Measurements from paper PMC6273209, “Evaluation of the Enantiomer Specific Biokinetics and Radiation Doses of [^18F]Fluspidine—A New Tracer in Clinical Translation for Imaging of σ1 Receptors” (Molecules, 2016).

Assay: Human dosimetry estimation from ex vivo biodistribution (organ harvesting method)
Assay type: in vivo, CD-1 mice
Details: for OD Adrenals / OD Brain / OD Breasts / OD Gallbladder Wall / OD Heart Wall / OD Kidneys / OD LLI Wall / OD Liver / OD Lungs / OD Muscle / OD Osteogenic Cells / OD Ovaries / OD Pancreas / OD Red Marrow / OD Skin / OD Small Intestine / OD Spleen / OD Stomach Wall / OD Testes / OD Thymus / OD Thyroid / OD Total Body / OD ULI Wall / OD Urinary Bladder Wall / OD Uterus / ED Contr. Adrenals / ED Contr. Brain / ED Contr. Breasts / ED Contr. Gallbladder Wall / ED Contr. Heart Wall / ED Contr. Kidneys / ED Contr. LLI Wall / ED Contr. Liver / ED Contr. Lungs / ED Contr. Muscle / ED Contr. Osteogenic Cells / ED Contr. Ovaries / ED Contr. Pancreas / ED Contr. Red Marrow / ED Contr. Skin / ED Contr. Small Intestine / ED Contr. Spleen / ED Contr. Stomach Wall / ED Contr. Thymus / ED Contr. Thyroid / ED Contr. ULI Wall / ED Contr. Urinary Bladder Wall / ED Contr. Uterus: mouse organ harvesting; for OD Adrenals / OD Brain / OD Breasts / OD Gallbladder Wall / OD Heart Wall / OD Kidneys / OD LLI Wall / OD Liver / OD Lungs / OD Muscle / OD Osteogenic Cells / OD Ovaries / OD Pancreas / OD Red Marrow / OD Skin / OD Small Intestine / OD Spleen / OD Stomach Wall / OD Testes / OD Thymus / OD Thyroid / OD Total Body / OD ULI Wall / OD Urinary Bladder Wall / OD Uterus: scaled to human adult male model; for ED Contr. Adrenals / ED Contr. Brain / ED Contr. Breasts / ED Contr. Gallbladder Wall / ED Contr. Heart Wall / ED Contr. Kidneys / ED Contr. LLI Wall / ED Contr. Liver / ED Contr. Lungs / ED Contr. Muscle / ED Contr. Osteogenic Cells / ED Contr. Ovaries / ED Contr. Pancreas / ED Contr. Red Marrow / ED Contr. Skin / ED Contr. Small Intestine / ED Contr. Spleen / ED Contr. Stomach Wall / ED Contr. Thymus / ED Contr. Thyroid / ED Contr. ULI Wall / ED Contr. Urinary Bladder Wall / ED Contr. Uterus / ED ICRP 60 / ED: scaled to human; for ED Contr. Adrenals / ED Contr. Brain / ED Contr. Breasts / ED Contr. Gallbladder Wall / ED Contr. Heart Wall / ED Contr. Kidneys / ED Contr. LLI Wall / ED Contr. Liver / ED Contr. Lungs / ED Contr. Muscle / ED Contr. Osteogenic Cells / ED Contr. Ovaries / ED Contr. Pancreas / ED Contr. Red Marrow / ED Contr. Skin / ED Contr. Small Intestine / ED Contr. Spleen / ED Contr. Stomach Wall / ED Contr. Thymus / ED Contr. Thyroid / ED Contr. ULI Wall / ED Contr. Urinary Bladder Wall / ED Contr. Uterus / ED: ICRP 103 weighting; for ED ICRP 60 / ED: mouse, harvesting; for ED ICRP 60: ICRP 60 weighting
Procedure: Female CD-1 mice (age: 12 weeks) received an intravenous injection of (R)-(+)-[^18F]fluspidine (0.35 ± 0.08 MBq; weight: 29.8 ± 2.2 g; n = 28) or (S)-(−)-[^18F]fluspidine (0.39 ± 0.05 MBq; weight: 29.3 ± 1.9 g; n = 22). Two to three animals per time point were sacrificed by cervical dislocation at 5, 15, 30, 45, 60, 90, 120, 180, and 240 min. p.i. The brain, heart, lung, stomach, small intestine (SI), large intestine (LI), liver, kidneys, urinary bladder (UB), spleen, thymus, pancreas, adrenals, and ovaries were dissected, weighed, and the accumulated activity quantified in a gamma-counter (WIZARD Automatic Gamma Counter, PerkinElmer, Waltham, MA, USA) to determine the percentage injected activity (dose) per gram of tissue (%ID/g).
In addition, the sampling time p.i. and %ID/g values were scaled proportionately to human magnitude (please see Equations (1) and (2) in Section 4.4) prior to dose estimation with OLINDA/EXM (Vanderbilt University, Nashville, TN, USA, version 1.0).
For human dosimetry estimation from animal biodistribution and PET/MR imaging, animal organ masses and time scale was extrapolated to human magnitudes. At first, the organ-specific animal %ID data were extrapolated to the human scale with the equation (1) %ID/organhuman=%ID/gmouse · morganhuman · mmouse/mhuman with the fraction of the injected activity in the corresponding human organ = %ID/organhuman , the fraction of injected activity per gram animal organ tissue = %ID/gmouse and morganhuman the mass of the corresponding human organ. At second, a time scale extrapolation is needed due to differences in the metabolic rate using the equation (2) thuman=tmouse{mhuman/mmouse}^0.25 including the human time scale = thuman , the animal time scale = tmouse and the ratio of animal and human body weights = mmouse/mhuman .
The human dosimetry estimation was performed with the data extrapolated as well as the genuine human data using OLINDA/EXM software. The time-activity curves were estimated by exponential fitting and calculating the time integral, which equals the number of disintegrations (NODs) per organ during the observation period normalized to 1 Becquerel administered activity dose. […] Therefore, activity data of the urinary bladder was derived from the image for each time point. In contrast, for humans the activity concentration data of the urinary bladder was obtained in a more direct approach. At first, the activity and volume of urine was determined in the last frame of the PET scan before each micturition. Afterwards, the voided urine was collected, weighed, and the activity of three aliquots (assuming 1 mL = 1 g) determined with a gamma counter, and the activity of the whole sample estimated. The difference between imaged and sampled urine activity is equal to the residue of radioactive urine in the urinary bladder. To calculate the NOD in the human urinary bladder, the time-activity curve is integrated using a trapezoidal equation (3) %ID˜UB=1/2∑i=1n−1(%IDi+%IDi+1)(ti+1−ti) with the fraction of injected activity %IDi at the time ti and the cumulated activity of the urinary bladder i.e., the NOD %ID˜UB .
Furthermore, the NODs of the gastric system were calculated following the ICRP GI model (ICRP 30) as implemented in OLINDA 1.0. The NODs obtained either from the EXM module or the trapezoidal equation were transferred to OLINDA. The OD for the chosen hermaphroditic adult male phantom is estimated following the MIRD scheme. The S values are pre-calculated and implemented for the respective phantom in OLINDA. Subsequently, the ED contribution from each organ is calculated by multiplying the ODs with the respective tissue weighting factors as published by the International Commission on Radiological Protection (ICRP 103 [27]) for each organ. […]

[18F]CC[C@H]1OC2(CCN(Cc3ccccc3)CC2)c2ccccc21 [(R)-(+)-[^18F]fluspidine]
OD Adrenals: 18.6 μSv/MBq
OD Brain: 12.6 μSv/MBq
OD Breasts: 11.3 μSv/MBq
OD Gallbladder Wall: 14.0 μSv/MBq
OD Heart Wall: 22.3 μSv/MBq
OD Kidneys: 27.6 μSv/MBq
OD LLI Wall: 16.4 μSv/MBq
OD Liver: 10.3 μSv/MBq
OD Lungs: 45.5 μSv/MBq
OD Muscle: 7.1 μSv/MBq
OD Osteogenic Cells: 19.1 μSv/MBq
OD Ovaries: 24.9 μSv/MBq
OD Pancreas: 21.7 μSv/MBq
OD Red Marrow: 13.5 μSv/MBq
OD Skin: 8.7 μSv/MBq
OD Small Intestine: 25.1 μSv/MBq
OD Spleen: 17.2 μSv/MBq
OD Stomach Wall: 14.3 μSv/MBq
OD Testes: 10.8 μSv/MBq
OD Thymus: 19.3 μSv/MBq
OD Thyroid: 11.5 μSv/MBq
OD Total Body: 12.2 μSv/MBq
OD ULI Wall: 25.6 μSv/MBq
OD Urinary Bladder Wall: 20.2 μSv/MBq
OD Uterus: 14.9 μSv/MBq
ED Contr. Adrenals: 0.2 μSv/MBq
ED Contr. Brain: 0.1 μSv/MBq
ED Contr. Breasts: 1.4 μSv/MBq
ED Contr. Gallbladder Wall: 0.1 μSv/MBq
ED Contr. Heart Wall: 0.2 μSv/MBq
ED Contr. Kidneys: 0.2 μSv/MBq
ED Contr. LLI Wall: 1.0 μSv/MBq
ED Contr. Liver: 0.4 μSv/MBq
ED Contr. Lungs: 5.5 μSv/MBq
ED Contr. Muscle: 0.1 μSv/MBq
ED Contr. Osteogenic Cells: 0.2 μSv/MBq
ED Contr. Ovaries: 2.0 μSv/MBq
ED Contr. Pancreas: 0.2 μSv/MBq
ED Contr. Red Marrow: 1.6 μSv/MBq
ED Contr. Skin: 0.1 μSv/MBq
ED Contr. Small Intestine: 0.2 μSv/MBq
ED Contr. Spleen: 0.1 μSv/MBq
ED Contr. Stomach Wall: 1.7 μSv/MBq
ED Contr. Thymus: 0.2 μSv/MBq
ED Contr. Thyroid: 0.5 μSv/MBq
ED Contr. ULI Wall: 1.5 μSv/MBq
ED Contr. Urinary Bladder Wall: 0.8 μSv/MBq
ED Contr. Uterus: 0.1 μSv/MBq
ED ICRP 60: 20.1 μSv/MBq
ED: 18.4 μSv/MBq

FCC[C@@H]1OC2(CCN(Cc3ccccc3)CC2)c2ccccc21 [(S)-(−)-[^18F]fluspidine]
OD Adrenals: 36.0 μSv/MBq
OD Brain: 12.4 μSv/MBq
OD Breasts: 11.2 μSv/MBq
OD Gallbladder Wall: 15.5 μSv/MBq
OD Heart Wall: 17.9 μSv/MBq
OD Kidneys: 35.6 μSv/MBq
OD LLI Wall: 19.0 μSv/MBq
OD Liver: 12.5 μSv/MBq
OD Lungs: 30.5 μSv/MBq
OD Muscle: 7.2 μSv/MBq
OD Osteogenic Cells: 19.6 μSv/MBq
OD Ovaries: 17.0 μSv/MBq
OD Pancreas: 26.2 μSv/MBq
OD Red Marrow: 13.6 μSv/MBq
OD Skin: 9.1 μSv/MBq
OD Small Intestine: 31.9 μSv/MBq
OD Spleen: 17.6 μSv/MBq
OD Stomach Wall: 14.8 μSv/MBq
OD Testes: 11.2 μSv/MBq
OD Thymus: 12.0 μSv/MBq
OD Thyroid: 11.7 μSv/MBq
OD Total Body: 12.5 μSv/MBq
OD ULI Wall: 33.3 μSv/MBq
OD Urinary Bladder Wall: 13.9 μSv/MBq
OD Uterus: 15.9 μSv/MBq
ED Contr. Adrenals: 0.3 μSv/MBq
ED Contr. Brain: 0.1 μSv/MBq
ED Contr. Breasts: 1.3 μSv/MBq
ED Contr. Gallbladder Wall: 0.1 μSv/MBq
ED Contr. Heart Wall: 0.2 μSv/MBq
ED Contr. Kidneys: 0.3 μSv/MBq
ED Contr. LLI Wall: 1.1 μSv/MBq
ED Contr. Liver: 0.5 μSv/MBq
ED Contr. Lungs: 3.7 μSv/MBq
ED Contr. Muscle: 0.1 μSv/MBq
ED Contr. Osteogenic Cells: 0.2 μSv/MBq
ED Contr. Ovaries: 1.4 μSv/MBq
ED Contr. Pancreas: 0.2 μSv/MBq
ED Contr. Red Marrow: 1.6 μSv/MBq
ED Contr. Skin: 0.1 μSv/MBq
ED Contr. Small Intestine: 0.3 μSv/MBq
ED Contr. Spleen: 0.2 μSv/MBq
ED Contr. Stomach Wall: 1.8 μSv/MBq
ED Contr. Thymus: 0.1 μSv/MBq
ED Contr. Thyroid: 0.5 μSv/MBq
ED Contr. ULI Wall: 2.0 μSv/MBq
ED Contr. Urinary Bladder Wall: 0.6 μSv/MBq
ED Contr. Uterus: 0.1 μSv/MBq
ED ICRP 60: 17.3 μSv/MBq
ED: 16.7 μSv/MBq
ED (listed as (S)-(−)-[^18F]Fluspidine): 16.7 μSv/MBq
